The values below come from US20260116920A1, “HUMAN TRANSFERRIN RECEPTOR BINDING PEPTIDE” (PEPTIDREAM INC., priority 2021, published 2026).

Positions of bridges follow the written chain, without caps; N, C: chain ends. Non-standard residues stand in square brackets, D forms with d. Residues, ends and D or L forms follow the SMILES beside them. *: point of attachment. Trp(1-CH2COOH) = N[C@@H](Cc1cn(CC(=O)O)c2ccccc12)C(=O)O; BCN(endo) = O=C(OC[C@@H]1[C@@H]2CCC#CCC[C@@H]21)*; Phe(3-COOH) = N[C@@H](Cc1cccc(C(=O)O)c1)C(=O)O; NMePhe(3-Cl) = CN[C@@H](Cc1cccc(Cl)c1)C(=O)O; 3Pal(6-NH2) = Nc1ccc(C[C@H](N)C(=O)O)cn1; NMeY = CN[C@@H](Cc1ccc(O)cc1)C(=O)O; 3Pal = N[C@@H](Cc1cccnc1)C(=O)O; PEG4 = NCCOCCOCCOCCOCCC(=O)O; Carboxymethyl = O=C(O)C* Where only a bound is given, the exact number is not on record here.

The target of one assay is T1, human transferrin receptor (hTfR) (Homo sapiens, UniProt P02786).
T1 construct: made in house
T1 sequence (P02786 89-760 limits assumed): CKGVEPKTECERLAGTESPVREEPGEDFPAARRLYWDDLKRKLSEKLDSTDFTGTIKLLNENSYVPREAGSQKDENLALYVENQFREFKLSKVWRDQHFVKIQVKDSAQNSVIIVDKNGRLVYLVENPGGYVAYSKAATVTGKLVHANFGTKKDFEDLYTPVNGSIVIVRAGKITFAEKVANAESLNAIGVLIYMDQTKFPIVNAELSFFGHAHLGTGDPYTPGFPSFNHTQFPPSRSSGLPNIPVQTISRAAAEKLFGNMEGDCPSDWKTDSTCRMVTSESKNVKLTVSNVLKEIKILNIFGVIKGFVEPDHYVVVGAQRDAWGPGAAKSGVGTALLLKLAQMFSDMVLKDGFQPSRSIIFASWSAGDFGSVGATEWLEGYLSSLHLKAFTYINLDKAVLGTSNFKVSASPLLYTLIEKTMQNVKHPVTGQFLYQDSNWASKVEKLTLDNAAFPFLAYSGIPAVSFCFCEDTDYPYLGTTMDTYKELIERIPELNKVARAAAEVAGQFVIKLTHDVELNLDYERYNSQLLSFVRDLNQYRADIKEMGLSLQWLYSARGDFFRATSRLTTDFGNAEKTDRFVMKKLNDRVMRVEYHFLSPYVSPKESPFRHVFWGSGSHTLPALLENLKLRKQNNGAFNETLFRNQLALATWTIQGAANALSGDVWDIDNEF
Kind of assay: Evaluation of molecular interaction between transferrin receptor (hTfR) and peptide using surface plasmon resonance (SPR). Type of assay: binding. The conditions noted are these: KD class for binding to hTfR by SPR; peptide with the linker shown in the same line; 'low signal indicates no activity'; read-out: SPR. In short, it runs like this: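 Using a Ni-NTA surface bearing covalently coupled hTfR dimer, peptides were tested at five concentrations from 5 to 100 nM. Running buffer was 10 mM HEPES pH 8.0, 150 mM NaCl, 0.05% Tween 20, 0.1% BSA, 1.0% DMSO; single-cycle sensorgrams were least-squares fitted for KD.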
Background: Surface plasmon resonance follows binding to a sensor surface in real time, without labels.
Turning to `CC[C@H](C)[C@@H]1NC(=O)[C@H](Cc2ccc(OCC(=O)O)cc2)NC(=O)[C@H](Cc2ccc(O)cc2)NC(=O)[C@H](CC(N)=O)NC(=O)[C@H](Cc2cn(CC(=O)O)c3ccccc23)NC(=O)[C@H](C(C)C)NC(=O)[C@H](Cc2cccc(Cl)c2)N(C)C(=O)[C@H](C(C)C)NC(=O)[C@H](C)NC(=O)CSC[C@@H](C(=O)NCC(=O)N[C@H](CO)C(=O)N[C@H](CO)C(=O)N[C@H](CO)C(=O)N[C@H](CO)C(=O)N[C@H](CO)C(=O)N[C@@H](CCCCNC(=O)OC[C@@H]2[C@@H]3CCC#CCC[C@@H]32)C(N)=O)NC(=O)[C@H](Cc2ccc(O)cc2)N(C)C(=O)[C@H](Cc2ccccc2)NC(=O)[C@H](CCCNC(=N)N)NC(=O)[C@H](CCCNC(=N)N)NC(=O)[C@H]([C@@H](C)CC)NC1=O` [894_3198] ({CH2CO}-AV[NMePhe(3-Cl)]V[Trp(1-CH2COOH)]NYY(Carboxymethyl)IIRRF[NMeY]CG[dS][dS][dS][dS][dS]K(BCN(endo))-NH2; thioether N-15), the Kd is under 1 nM.

In the case of `CC[C@H](C)[C@@H]1NC(=O)[C@H](Cc2ccc(OCC(=O)O)cc2)NC(=O)[C@H](Cc2ccc(O)cc2)NC(=O)[C@H](CC(N)=O)NC(=O)[C@H](Cc2cn(CC(=O)O)c3ccccc23)NC(=O)[C@H](C(C)C)NC(=O)[C@H](Cc2cccc(Cl)c2)N(C)C(=O)[C@H](C(C)C)NC(=O)[C@H](C)NC(=O)CSC[C@@H](C(=O)NCC(=O)N[C@@H](CCCCNC(=O)OC[C@@H]2[C@@H]3CCC#CCC[C@@H]32)C(N)=O)NC(=O)[C@H](Cc2ccc(O)cc2)N(C)C(=O)[C@H](Cc2ccccc2)NC(=O)[C@H](CCCNC(=N)N)NC(=O)[C@H](CCC(=O)NCCOCCOCCOCCOCCOCCOCCOCCOC)NC(=O)[C@H]([C@@H](C)CC)NC1=O` [894_3199], the Kd was under 1 nM.

As for `CC[C@H](C)[C@@H]1NC(=O)[C@H](Cc2ccc(O)cc2)NC(=O)[C@H](Cc2ccc(O)cc2)NC(=O)[C@H](CC(N)=O)NC(=O)[C@H](Cc2c[nH]c3ccccc23)N(C)C(=O)[C@H](C(C)C)NC(=O)[C@H](Cc2ccccc2)N(C)C(=O)[C@H](C(C)C)NC(=O)[C@H](C)NC(=O)CSC[C@@H](C(=O)NCC(=O)N[C@H](CO)C(=O)N[C@H](CO)C(=O)N[C@H](CO)C(=O)N[C@H](CO)C(=O)N[C@H](CO)C(=O)N[C@@H](CCCCN=[N+]=[N-])C(N)=O)NC(=O)[C@H](Cc2ccc(O)cc2)N(C)C(=O)[C@H](Cc2ccc(O)cc2)NC(=O)[C@H](CCCNC(=N)N)NC(=O)[C@H](CCCCN)NC(=O)[C@H]([C@@H](C)CC)NC1=O` [894_3200], the Kd is under 1 nM.

`CC[C@H](C)[C@@H]1NC(=O)[C@H](Cc2cccnc2)NC(=O)[C@H](Cc2ccc(N)nc2)NC(=O)[C@H](CC(N)=O)NC(=O)[C@H](Cc2c[nH]c3ccccc23)NC(=O)[C@H](C(C)C)NC(=O)[C@H](Cc2cccc(Cl)c2)N(C)C(=O)[C@H](C(C)C)NC(=O)[C@H](C)NC(=O)CSC[C@@H](C(=O)NCCOCCOCCOCCOCCC(N)=O)NC(=O)[C@H](Cc2ccc(O)cc2)N(C)C(=O)[C@H](Cc2cccc(C(=O)O)c2)NC(=O)[C@H](CCCNC(=N)N)NC(=O)[C@H](CCCNC(=N)N)NC(=O)[C@H]([C@@H](C)CC)NC1=O` [SEQ ID No. 198] ({CH2CO}-AV[NMePhe(3-Cl)]VWN[3Pal(6-NH2)][3Pal]IIRR[Phe(3-COOH)][NMeY]C[PEG4]-NH2; thioether N-15): the Kd was 1 to 100 nM.

Staying with this assay, now noted: surface plasmon resonance, binding to hTfR; KD class symbol; read-out: SPR (KD value).
As to `CC[C@H](C)[C@@H]1NC(=O)[C@H](Cc2ccc(O)cc2)NC(=O)[C@H](Cc2ccc(O)cc2)NC(=O)[C@H](CC(N)=O)NC(=O)[C@H](Cc2c[nH]c3ccccc23)NC(=O)[C@H](C(C)C)NC(=O)[C@H](Cc2ccccc2)N(C)C(=O)[C@H](C(C)C)NC(=O)[C@H](C)NC(=O)CSC[C@@H](C(N)=O)NC(=O)[C@H](Cc2ccc(O)cc2)N(C)C(=O)[C@H](Cc2ccccc2)NC(=O)[C@H](CCCNC(=N)N)NC(=O)[C@H](CCCCNC(=O)CCOCCOCCOCCOC)NC(=O)[C@H]([C@@H](C)CC)NC1=O` [compound 1], the Kd is 1 to 100 nM.

With `CC[C@H](C)[C@@H]1NC(=O)[C@H](Cc2ccc(O)cc2)NC(=O)[C@H](Cc2ccc(O)cc2)NC(=O)[C@H](CC(N)=O)NC(=O)[C@H](Cc2c[nH]c3ccccc23)NC(=O)[C@H](C(C)C)NC(=O)[C@H](Cc2ccccc2)N(C)C(=O)[C@H](C(C)C)NC(=O)[C@H](C)NC(=O)CSC[C@@H](C(N)=O)NC(=O)[C@H](Cc2ccc(O)cc2)N(C)C(=O)[C@H](Cc2ccccc2)NC(=O)[C@H](CCCCNC(=O)CCOCCOCCOCCOC)NC(=O)[C@H](CCCNC(=N)N)NC(=O)[C@H]([C@@H](C)CC)NC1=O` [compound 2], the Kd lay within 1 to 100 nM.

As for `CC[C@H](C)[C@@H]1NC(=O)[C@H](Cc2ccc(O)cc2)NC(=O)[C@H](Cc2ccc(O)cc2)NC(=O)[C@H](CC(N)=O)NC(=O)[C@H](Cc2c[nH]c3ccc(Cl)cc23)NC(=O)[C@H](C(C)C)NC(=O)[C@H](Cc2ccc(F)cc2)N(C)C(=O)[C@H](C(C)C)NC(=O)[C@H](C)NC(=O)CSC[C@@H](C(N)=O)NC(=O)[C@H](Cc2ccc(O)cc2)N(C)C(=O)[C@H](Cc2ccccc2)NC(=O)[C@H](CCCCNC(=O)CCOCCOCCOCCOC)NC(=O)[C@H](CCCNC(=N)N)N(C)C(=O)[C@H]([C@@H](C)CC)NC1=O` [compound 3], the Kd lay in the range of 1 to 100 nM.

As to `CC[C@H](C)[C@@H]1NC(=O)[C@H](Cc2ccc(OC)cc2)NC(=O)[C@H](Cc2ccc(O)cc2)NC(=O)[C@H](CC(N)=O)NC(=O)[C@H](Cc2c[nH]c3ccc(Cl)cc23)NC(=O)[C@H](C(C)C)NC(=O)[C@H](Cc2ccc(F)cc2)N(C)C(=O)[C@H](C(C)C)NC(=O)[C@H](C)NC(=O)CSC[C@@H](C(N)=O)NC(=O)[C@H](Cc2ccc(O)cc2)N(C)C(=O)[C@H](Cc2ccccc2)NC(=O)[C@H](CCCCNC(=O)CCOCCOCCOCCOC)NC(=O)[C@H](CCCNC(=N)N)N(C)C(=O)[C@H]([C@@H](C)CC)NC1=O` [compound 4], the Kd lay in the range of 1 to 100 nM.

As for `CC[C@H](C)[C@@H]1NC(=O)[C@H](Cc2ccc(O)cc2)NC(=O)[C@H](Cc2ccc(O)cc2)NC(=O)[C@H](CC(N)=O)NC(=O)[C@H](Cc2c[nH]c3ccccc23)N(C)C(=O)[C@H](C(C)C)NC(=O)[C@H](Cc2ccc(F)cc2)N(C)C(=O)[C@H](C(C)C)NC(=O)[C@H](C)NC(=O)CSC[C@@H](C(N)=O)NC(=O)[C@H](Cc2ccc(O)cc2)N(C)C(=O)[C@H](Cc2ccccc2)NC(=O)[C@@H](CCCNC(=N)N)NC(=O)[C@H](CCCCNC(=O)CCOCCOCCOCCOC)NC(=O)[C@H]([C@@H](C)CC)NC1=O` [compound 5], the Kd lay in the range of 1 to 100 nM.

Consider `CC[C@H](C)[C@@H]1NC(=O)[C@H](Cc2ccc(OC)cc2)NC(=O)[C@H](Cc2ccc(O)cc2)NC(=O)[C@H](CC(N)=O)NC(=O)[C@H](Cc2c[nH]c3ccccc23)N(C)C(=O)[C@H](C(C)C)NC(=O)[C@H](Cc2ccc(F)cc2)N(C)C(=O)[C@H](C(C)C)NC(=O)[C@H](C)NC(=O)CSC[C@@H](C(N)=O)NC(=O)[C@H](Cc2ccc(O)cc2)N(C)C(=O)[C@H](Cc2ccccc2)NC(=O)[C@@H](CCCNC(=N)N)NC(=O)[C@H](CCCCNC(=O)CCOCCOCCOCCOC)NC(=O)[C@H]([C@@H](C)CC)NC1=O` [compound 6], for which the Kd was in the range of 1 to 100 nM.

As for `CC[C@H](C)[C@@H]1NC(=O)[C@H](Cc2ccc(O)cc2)NC(=O)[C@H](Cc2ccc(O)cc2)NC(=O)[C@H](CC(N)=O)NC(=O)[C@H](Cc2c[nH]c3ccccc23)N(C)C(=O)[C@H](C(C)C)NC(=O)[C@H](Cc2ccc(F)cc2)N(C)C(=O)[C@H](C(C)C)NC(=O)[C@H](C)NC(=O)CSC[C@@H](C(N)=O)NC(=O)[C@H](Cc2ccc(O)cc2)N(C)C(=O)[C@H](Cc2ccccc2)NC(=O)[C@H](CCCCNC(=O)CCOCCOCCOCCOC)NC(=O)[C@H](CCCNC(=N)N)N(C)C(=O)[C@H]([C@@H](C)CC)NC1=O` [compound 7], the Kd lay in the range of 1 to 100 nM.

As for `CC[C@H](C)[C@@H]1NC(=O)[C@H](Cc2ccc(OC)cc2)NC(=O)[C@H](Cc2ccc(O)cc2)NC(=O)[C@H](CC(N)=O)NC(=O)[C@H](Cc2c[nH]c3ccccc23)N(C)C(=O)[C@H](C(C)C)NC(=O)[C@H](Cc2ccc(F)cc2)N(C)C(=O)[C@H](C(C)C)NC(=O)[C@H](C)NC(=O)CSC[C@@H](C(N)=O)NC(=O)[C@H](Cc2ccc(O)cc2)N(C)C(=O)[C@H](Cc2ccccc2)NC(=O)[C@H](CCCCNC(=O)CCOCCOCCOCCOC)NC(=O)[C@H](CCCNC(=N)N)N(C)C(=O)[C@H]([C@@H](C)CC)NC1=O` [compound 8], the Kd fell in the range of 1 to 100 nM.

On to `CC[C@H](C)[C@@H]1NC(=O)[C@H](Cc2ccc(O)cc2)NC(=O)[C@H](Cc2ccc(O)cc2)NC(=O)[C@H](CC(=O)N(C)C)NC(=O)[C@H](Cc2c[nH]c3ccccc23)NC(=O)[C@H](C(C)C)NC(=O)[C@H](Cc2ccccc2)N(C)C(=O)[C@H](C(C)C)NC(=O)[C@H](C)NC(=O)CSC[C@@H](C(N)=O)NC(=O)[C@H](Cc2ccc(O)cc2)N(C)C(=O)[C@H](Cc2ccc(O)cc2)NC(=O)[C@H](CCCNC(=N)N)NC(=O)[C@H](CCCNC(=N)N)NC(=O)[C@H]([C@@H](C)CC)NC1=O` [compound 9], for which the Kd lay within 100 to 1000 nM.

With `CC[C@H](C)[C@@H]1NC(=O)[C@H](Cc2ccc(OC)cc2)NC(=O)[C@H](Cc2ccc(O)cc2)NC(=O)[C@H](CC(N)=O)NC(=O)[C@H](Cc2c[nH]c3ccccc23)N(C)C(=O)[C@H](C(C)C)NC(=O)[C@H](Cc2cccc(Cl)c2)N(C)C(=O)[C@H](C(C)C)NC(=O)[C@H](C)N(C)C(=O)CSC[C@@H](C(=O)NCCOCCOCCOCCOCCC(N)=O)NC(=O)[C@H](Cc2ccc(O)cc2)N(C)C(=O)[C@H](Cc2ccccc2)NC(=O)[C@@H](C)NC(=O)[C@H](CCCNC(=N)N)NC(=O)[C@H]([C@@H](C)CC)NC1=O` [compound 10], the Kd is 1 to 100 nM.

On to `CC[C@H](C)[C@@H]1NC(=O)[C@H](Cc2ccc(OC)cc2)NC(=O)[C@H](Cc2ccc(O)cc2)NC(=O)[C@H](CC(N)=O)NC(=O)[C@H](Cc2c[nH]c3ccccc23)NC(=O)[C@H](C(C)C)NC(=O)[C@H](Cc2cccc(Cl)c2)N(C)C(=O)[C@H](C(C)C)NC(=O)[C@H](C)NC(=O)CSC[C@@H](C(=O)NCC(=O)N[C@@H](CCCCN=[N+]=[N-])C(N)=O)NC(=O)[C@H](Cc2ccc(O)cc2)N(C)C(=O)[C@H](Cc2ccccc2)NC(=O)[C@H](CCCNC(=N)N)NC(=O)[C@H](CCCNC(=N)N)NC(=O)[C@H]([C@@H](C)CC)NC1=O` [compound 11], for which the Kd was in the range of 1 to 100 nM.
